Laboratory results from article PMC8621101, “Inhibition of XPO-1 Mediated Nuclear Export through the Michael-Acceptor Character of Chalcones” (Pharmaceuticals, 2021).

What was measured:
K-562 cells = assay: Cell proliferation assay (IncuCyte confluence), K-562; assay type: cell-based; conditions: Homo sapiens, K562; K-562 chronic myeloid leukemia; 72 h; mean of two independent experiments ± SEM; read-out: IC50 antiproliferative activity K-562
Experimental: (§1) Cancer cell lines HCT-116, NCI-H460, HL-60, K-562 and Z-138 were acquired from the American Type Culture Collection (ATCC, Manassas, VA, USA). The DND-41 cell line was purchased from the Deutsche Sammlung von Mikroorganismen und Zellkulturen (DSMZ Leibniz-Institut, Brunswick, Germany), and the HAP-1 cell line was ordered from Horizon Discovery (Horizon Discovery Group, Water Beach, UK). All cell lines were cultured as recommended by the suppliers. Culture media were purchased from Gibco Life Technologies and supplemented with 10% fetal bovine serum (HyClone, GE Healthcare Life Sciences, Chicago, Illinois, USA).
(§2) Adherent cell lines HCT-116, NCI-H460 and Hap-1 cells were seeded at a density between 500 and 1500 cells per well in 384-well tissue culture plates (Greiner). After overnight incubation, cells were treated with different concentrations of the test compounds. Suspension cell lines HL-60, K-562, Z-138 and DND-41 were seeded at densities ranging from 2500 to 5500 cells per well in 384-well culture plates containing the test compounds at the same concentration points.

DND-41 cells = assay: Cell proliferation assay (IncuCyte confluence), DND-41; assay type: cell-based; conditions: DND41; DND-41 acute lymphoblastic leukemia; 72 h; mean of two independent experiments ± SEM; read-out: IC50 antiproliferative activity DND-41
Experimental: as §1, §2

XPO1 = target: T1, XPO1 (Homo sapiens, UniProt O14980); assay: XPO1 phenotypic reporter assay in HeLa NLSSV40-AcGFP-NESPKI cells; assay type: cell-based; conditions: HeLa GFP reporter cell line; for IC50: 2 h treatment, mean ± SEM of two independent experiments, read-out: XPO1 inhibition IC50
T1 construct: the compounds were assayed in a reporter cell line based on the subcellular localization of a XPO1-dependent GFP reporter cargo protein; endogenous in cells; host or cells: HeLa cells stably transfected with the NLSSV40-AcGFP-NESPKI reporter (only the reporter cargo is transfected, not XPO1)
Experimental: Stably transfected HeLa NLSSV40-AcGFP-NESPKI were cultured as described in Vercruysse et al.
To study the XPO1-mediated nuclear export, stably transfected HeLa NLSSV40-AcGFP-NESPKI reporter cells were seeded at 8000 cells per well in 96-well all clear tissue culture plates (TPP). After overnight incubation, cells were treated with different doses of compound or solvent (DMSO) for 2 h and then fixed and counterstained with DAPI. Fluorescence was read on an ArrayScan XTI High Content Reader (Thermo Fisher Scientific, Waltham, MA, USA). Nuclear and cytoplasmic compartments were segmented and their average pixel intensities in the green channel were quantitated employing the HCS Studio software. Genedata Screener software was used for dose-response curve fitting, and calculation of EC50 values was based on the percentage of cells having a predominant nuclear localisation (ratio of nuclear to cytoplasmic signal equal or above 1.4) of the reporter construct. Compounds were tested in two independent experiments and represented as mean ± SEM.

NCI-H460 cells = assay: Cell proliferation assay (IncuCyte confluence), NCI-H460; assay type: cell-based; conditions: Homo sapiens; NCI-H460 lung carcinoma; 72 h; mean of two independent experiments ± SEM; read-out: IC50 antiproliferative activity NCI-H460
Experimental: as §1, §2

HCT-116 cells = assay: Cell proliferation assay (IncuCyte confluence), HCT-116; assay type: cell-based; conditions: Homo sapiens; HCT-116 colorectal carcinoma; 72 h; mean of two independent experiments ± SEM; read-out: IC50 antiproliferative activity HCT-116
Experimental: as §1, §2

[1] = test system: panel of cancer cell lines; assay: Antiproliferative activity, panel of cancer cell lines; assay type: cell-based; conditions: panel of cancer cell lines
Experimental: as §2

HL-60 cells = assay: Cell proliferation assay (IncuCyte confluence), HL-60; assay type: cell-based; conditions: Homo sapiens; HL-60 acute myeloid leukemia; 72 h; mean of two independent experiments ± SEM; read-out: IC50 antiproliferative activity HL-60
Experimental: as §1, §2

Hap-1 cells = assay: Cell proliferation assay (IncuCyte confluence), Hap-1; assay type: cell-based; conditions: Homo sapiens, HAP1; Hap-1 chronic myeloid leukemia; 72 h; mean of two independent experiments ± SEM; read-out: IC50 antiproliferative activity Hap-1
Experimental: as §1, §2

Z-138 cells = assay: Cell proliferation assay (IncuCyte confluence), Z-138; assay type: cell-based; conditions: Homo sapiens; Z-138 non-Hodgkin lymphoma; 72 h; mean of two independent experiments ± SEM; read-out: IC50 antiproliferative activity Z-138
Experimental: as §1, §2

[2] = GSH reactivity assay (HPLC, DTNB quench); assay type: physicochemical; conditions: 500 µM compound, 5 mM GSH, 37 °C; for Reaction with GSH (hetero-Michael addition), qualitative: PBS pH 7.4 with EDTA:DMSO 1:1
Experimental: In order to determine if these chalcones could react with thiol groups through a hetero-Michael addition reaction, a few selected compounds (9, 10, 13 and 18) were incubated with glutathione (GSH). After different incubation times, the reactions were quenched by adding 5,5′-dithiobis(2-nitrobenzoic acid) (DTNB, Ellman´s reagent) (1:1 ratio with respect to the initial concentration of GSH). The course of the reaction was followed by HPLC, adapting reported procedures. […] Thus, although this assay is only qualitative, the tendency observed among these chalcones nicely fits the reactivity described for α-X-2´3,4,4´-tetramethylchalcones.
A 500 µM sample of the tested compound was incubated with 5 mM reduced L-glutathione for 24 h at 37 °C with a final volume of 200 μL. As a solvent system, 20 mM PBS buffer pH 7.4 with 2 mM EDTA:DMSO (1:1) was used. To perform the assay, stock solutions of 20 mM of the chalcones (9, 10, 13 and 18) and 15 mM of reduced L-glutathione were freshly prepared for every experiment and then diluted properly to give the final electrophile:nucleophile ratio (1:10). A 5 mM solution of 5,5′-dithiobis(2-nitrobenzoic acid) (DTNB) was prepared in the same solvent system to quench the reaction. After different time points (10 min, 1 h, 4 h and 24 h), an aliquot of 20 μL of the incubation mixture was quenched by adding 20 μL of the DTNB stock solution, mixed thoroughly, and then analyzed by HPLC. HPLC analysis was performed in Agilent 1120 compact LC, column ACE 5 C18-300 (15 cm × 4.6 mm); UV detection was performed at λ = 254 nm. Solvents used were acetonitrile for bottle A and H2O (containing 0.05% TFA) for bottle B, and the flow rate was 1mL/min. The gradients used were: (A) incubations with chalcone 9: from 10% to 80% of solvent A in 10 min; (B) incubations with chalcones 10 and 18: from 10% to 100% of solvent A in 10 min. The new peaks were analysed by LC-MS. As controls, a 500 μM solution of the α,β-unsaturated compound was also analysed, and a 5 mM reduced L-glutathione solution was quenched by adding DNTB at the same time points. In general, after 6 h of incubation, no GSH was detected.

T1 sequence (O14980 whole entry): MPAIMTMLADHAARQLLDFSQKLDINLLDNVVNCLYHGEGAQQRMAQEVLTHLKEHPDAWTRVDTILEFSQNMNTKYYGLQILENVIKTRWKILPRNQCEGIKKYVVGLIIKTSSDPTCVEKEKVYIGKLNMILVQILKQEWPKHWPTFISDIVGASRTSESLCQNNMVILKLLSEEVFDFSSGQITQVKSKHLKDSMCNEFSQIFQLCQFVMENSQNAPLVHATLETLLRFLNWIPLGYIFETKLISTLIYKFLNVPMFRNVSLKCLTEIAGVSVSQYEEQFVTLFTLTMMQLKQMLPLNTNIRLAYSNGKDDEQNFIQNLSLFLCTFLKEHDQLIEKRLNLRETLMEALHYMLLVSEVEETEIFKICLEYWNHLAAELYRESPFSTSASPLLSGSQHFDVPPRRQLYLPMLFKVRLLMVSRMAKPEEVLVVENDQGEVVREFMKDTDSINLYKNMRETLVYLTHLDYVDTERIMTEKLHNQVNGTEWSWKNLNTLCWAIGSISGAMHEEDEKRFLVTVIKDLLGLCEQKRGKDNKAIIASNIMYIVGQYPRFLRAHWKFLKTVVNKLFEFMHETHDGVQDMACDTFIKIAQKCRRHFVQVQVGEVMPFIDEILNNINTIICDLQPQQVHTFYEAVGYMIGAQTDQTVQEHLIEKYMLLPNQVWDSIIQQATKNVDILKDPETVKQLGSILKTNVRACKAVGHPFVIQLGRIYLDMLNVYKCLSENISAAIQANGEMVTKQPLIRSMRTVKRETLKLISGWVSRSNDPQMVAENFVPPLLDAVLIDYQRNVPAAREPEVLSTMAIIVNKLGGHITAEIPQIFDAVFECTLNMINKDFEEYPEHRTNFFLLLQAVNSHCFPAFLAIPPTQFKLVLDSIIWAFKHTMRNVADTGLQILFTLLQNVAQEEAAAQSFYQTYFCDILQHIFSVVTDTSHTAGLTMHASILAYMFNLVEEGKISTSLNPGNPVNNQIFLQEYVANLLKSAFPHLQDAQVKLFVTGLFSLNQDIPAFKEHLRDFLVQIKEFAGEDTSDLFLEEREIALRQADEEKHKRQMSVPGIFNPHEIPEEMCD

Row | melting point [°C] | IC50 (K-562 cells) [µM] | XPO1 inhibition, in words (XPO1) | IC50 (XPO1) [µM] | IC50 (NCI-H460 cells) [µM] | IC50 (HCT-116 cells) [µM] | IC50 (HL-60 cells) [µM] | Reversibility of GSH adducts (retro-Michael), qualitative ([2]; longer incubation) | SMILES | IC50 (DND-41 cells) [µM] | Antiproliferative activity, in words [1] | IC50 (Hap-1 cells) [µM] | IC50 (Z-138 cells) [µM] | Reaction with GSH (hetero-Michael addition), qualitative [2]
1 | 81 to 82 | 42.9 ± 0.1 | almost inactive against XPO1 | 87.3 ± 4.91 | 17.3 ± 4.6 | ≥ 22.2 | 23.4 ± 1.9 |  | COC(=O)/C(=C\c1cncnc1)C(=O)c1cc(OC)cc(OC)c1 [Compound 30, (E)-2-Methoxycarbonyl-1-(3′,5′-dimethoxybenzoyl)-3-(pyrimidin-5′-yl)prop-2-en-1-one] | 43.2 ± 6.4 | considerably less active than the α-H chalcone 10 | ≥ 32 | 47.6 ± 1.1 | 
2 | 123 to 125 | 2.2 ± 0.03 |  | 1.27 ± 0.29 | 4.3 ± 2.2 | 3.1 ± 0.9 | 3.5 ± 2.1 |  | O=C(/C=C/c1cccnc1)c1ccc2ccccc2c1 [Compound 24, (E)-1-(Naphthalen-2-yl)-3-(pyridin-3-yl)prop-2-en-1-one] | 1.8 ± 0.5 | low µM range | 1.6 ± 0.1 | 1.6 ± 0.1 | 
3 |  |  |  | 9.18 ± 3.28 |  |  |  |  | NC(=O)C(=Cc1cncnc1)C(=O)c1ccc2ccccc2c1 [Compound 5, reference compound] |  |  |  |  | 
4 |  | 37.5 ± 0.9 | active | 12.3 ± 1.28 | 16.9 ± 4.5 | 34.2 ± 6.5 | 10 ± 0.9 |  | COCCOc1cc(OC)cc(C(=O)/C=C/c2cncnc2)c1 [Compound 33, (E)-1-(3′-Methoxy-5′-(2-methoxyethoxy)phenyl)-3-(pyrimidin-5′’-yl)prop-2-en-1-one] | 3.7 ± 1.6 |  | 4.3 ± 2.5 | 1.5 ± 0.2 | 
5 | 135 to 137 | 4 ± 0.2 |  | 10.7 ± 3.24 | 7.7 ± 1.1 | 1.9 ± 0.4 | 0.9 ± 0.2 |  | O=C(/C=C/c1ccncc1)c1ccc2ccccc2c1 [Compound 26, (E)-1-(Naphthalen-2-yl)-3-(pyridin-4-yl)prop-2-en-1-one] | 1.9 ± 0.4 | low µM range | 2.3 ± 0.3 | 1.1 ± 0.4 | 
6 | 89 to 90 | 4.8 ± 2.8 |  | 7.28 ± 1.34 | 51.6 ± 11.7 | 3.9 ± 1.5 | 1.8 ± 0.05 |  | O=C(/C=C/c1ccccn1)c1ccc2ccccc2c1 [Compound 25, (E)-1-(Naphthalen-2-yl)-3-(pyridin-2-yl)prop-2-en-1-one] | 2.6 ± 0.4 | low µM range | 3.4 ± 0.5 | 2.3 ± 0.5 | 
7 | 161 to 163 | > 100 | inactive against XPO1 | > 100 | ≥ 47.1 | ≥ 15.5 | > 100 | adducts reverted to the parent chalcone | COC(=O)/C(=C/c1cncnc1)C(=O)c1ccc2ccccc2c1 [Compound 13, (E)-2-Methoxycarbonyl-1-(naphthalene-2-yl)-3-(pyrimidin-5-yl)prop-2-en-1-one] | ≥ 30.6 | almost inactive | ≥ 54.9 | > 100 | provided the Michael adducts with GSH after a short reaction time
8 |  | 48.5 ± 2.4 | inactive against XPO1 | > 100 | > 100 | > 100 | ≥ 40.9 |  | C/C(=C\c1cncnc1)C(=O)c1ccc2ccccc2c1 [Compound 18, (E)-2-Methyl-1-(naphthalen-2-yl)-3-(pyrimidin-5-yl)prop-2-en-1-one] | 39.1 ± 5.3 | almost inactive | > 100 | > 100 | remained almost unaltered even after 4 h of incubation
9 |  | 4.1 ± 1.9 | active | 1.59 ± 0.36 | 34.5 ± 5.2 | 52.9 ± 3.6 | 40.2 ± 10.1 |  | COc1cc(OCC=C(C)C)cc(C(=O)/C=C/c2cncnc2)c1 [Compound 34, (E)-1-(3′-Methoxy-5′-((3-methylbut-2-en-1-yl)oxy)phenyl)-3-(pyrimidin-5′’-yl)prop-2-en-1-one] | 10.1 |  | 10 ± 2 | 4.6 ± 2.7 | 
10 |  | 2.1 ± 0.1 |  | ~10 | 2.6 ± 0.7 | 5.3 ± 3.1 | 5.5 ± 3.6 |  | NC(=O)/C(=C/c1cncnc1)C(=O)c1ccc2ccccc2c1 [Compound 15, (E)-2-Carbamoyl-1-(naphthalene-2-yl)-3-(pyrimidin-5-yl)prop-2-en-1-one] | 8.9 ± 0.9 | slightly less active than the parent chalcone 9 | 2.1 ± 0.7 | 5.1 ± 2.7 | 
